The target in the experiment is T1, RHD alpha subunit (RhdA, RS30940) (Pseudomonas aeruginosa, UniProt Q9HTF4).
T1 construct: gene gbcA; alpha subunit alone, 428 residues, His-tagged, pET-28a (NdeI/EcoRI), E. coli BL21 Star (DE3); no tag removal told
T1 sequence (Q9HTF4 1-429): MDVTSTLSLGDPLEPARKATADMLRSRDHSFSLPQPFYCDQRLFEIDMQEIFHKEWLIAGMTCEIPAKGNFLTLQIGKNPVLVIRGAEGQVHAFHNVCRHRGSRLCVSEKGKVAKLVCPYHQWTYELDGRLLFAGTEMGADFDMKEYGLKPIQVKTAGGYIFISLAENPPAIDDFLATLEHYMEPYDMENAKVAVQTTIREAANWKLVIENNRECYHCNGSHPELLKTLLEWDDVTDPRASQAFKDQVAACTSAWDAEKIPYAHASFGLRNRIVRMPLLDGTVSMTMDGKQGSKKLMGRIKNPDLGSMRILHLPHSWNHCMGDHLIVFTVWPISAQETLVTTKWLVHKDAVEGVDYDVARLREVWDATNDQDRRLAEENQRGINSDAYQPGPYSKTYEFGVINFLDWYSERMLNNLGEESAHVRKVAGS
In words: intrinsic tryptophan fluorescence quenching (Stern-Volmer). Format: binding. The following applies: phosphate buffer pH 7.5; 5.0 x 10^-6 mol/L protein; 298, 304 and 310 K; excitation 278 nm.

Take `c1ccc2c(c1)-c1cccc3cccc-2c13` [fluoranthene]: the Stern-Volmer parameters entry was “intrinsic fluorescence of RHD alpha subunit could be quenched by fluoranthene”.
